What was measured:
[1] = test system: MES (electroshock) seizure in mice; assay: Anti-epilepsy activity, MES test in mouse; assay type: in vivo, ICR mice; conditions: po
Summary of the method: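 Male ICR mice (19–25 g) and male SD rats (100–130 g) dosed orally with compound in 20% Tween 80/saline, then shocked via corneal electrodes at peak time (mice 50 mA, rats 150 mA; 60 Hz, 0.2 sec). Three doses used; ED50 for seizure protection by Litchfield–Wilcoxon log-probit.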

[2] = test system: BIC-induced clonic seizure in mice; assay: Chemical induced seizure model (BIC); assay type: in vivo, ICR mice; conditions: Mus musculus, ip
Description: Male ICR mice (purchased from Orient Bio Inc. Korea) of body weight 19-26 g were used for these studies. The test materials were administered intraperitoneal route in a volume of 10 ul/g weight. Pharmacological effects of all the test materials were evaluated to compared test groups (n=6) with a control group (n=6). Control group was administrated vehicle, only. The peak time was determined by administration test material's random dose for 0.5 and 1 hour. The time that the most protect was defined peak time and ED50 was determined by other dose administration at peak time. BIC was dissolved in 0.9% saline and administered subcutaneously (s.c.) at its CD97 (convulsive dose 97%) the dose of BIC that produced clonic seizures in 97% into a loose fold of skin in the midline of the neck in a volume of 10 ul/g body weight. The animals were then transferred to observation cages and observed continuously for 30 min. Clonic seizure was elicited in approximately 95% of control group. Protection was defined as complete absence of a clonic seizure over the 30-min observation period. The time that the most protect was defined peak time and ED50 was determined by other dose administration at peak time. The effective dose of compound necessary to protect against seizures to 50% of controls (i.e., ED50) was determined by log probit analysis using Excel 2007 (Microsoft).

[3] = test system: Lithium-pilocarpine induced seizure in rats; assay: Lithium-pilocarpine induced epilepsy test (LI-PILO), prevention test; assay type: in vivo, Sprague-Dawley rats
Summary of the method: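 Male Sprague-Dawley rats (175 g) received lithium chloride 127 mg/kg i.p., then pilocarpine 30-43 mg/kg i.p. 18-20 h later, with methyl-scopolamine 2 mg/kg given 30 min before pilocarpine. Test drugs in 20% Tween80 were given i.p. 0.5-4 h beforehand (n=6). Protection meant no Racine grade 3-5 seizure over 90 min, and ED50 was determined at peak time.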

[4] = test system: PTZ (Pentylenetetrazol)-induced clonic seizure in mice; assay: Anti-epilepsy activity, scPTZ test in mouse; assay type: in vivo, ICR mice; conditions: ip
Text: In this experiment, each test compound sample was formulated as described in Biological Experimental Example 1, and administered intraperitoneally to the test animals (mice; ICR or Rat; SD); Experimental animals, male ICR mice and male SD rats, were purchased from OrientBio or Nara biotech, Korea, and housed 4-5 mice per a cage for 4-5 days. The range of mice body weight was used between 19 and 26 grams and range of rats body weight was used between 100 and 130 grams. After Peak time (0.5, 1, 2 and 4 hr) from the administration, PTZ (Pentylenetetrazol) was administered subcutaneously in the concentration capable of inducing 97% intermittent convulsions (mice: 100-110 mg/kg?bw, 10 μl/g, or rats: 90-110 mg/kg?bw, 2 μl/g). If clonic seizure was not observed for at least 30 minutes in the PTZ administered animal, it can be considered that the test compound has anti-epilepsy activity. The median effective dose (ED50) is determined using 6 animals per a concentration (total three different concentrations), and calculated by Litchfield and Wicoxon log-probit method which is a dose-response relationship.

[5] = test system: Lithium-pilocarpine induced seizure in rats; assay: Lithium pilocarpine model (inter); assay type: in vivo, Sprague-Dawley rats; conditions: Rattus norvegicus
Description: Male Sprague-Dawley rats (purchased from Orient Bio Inc. Korea) of body weight 175 grams were used for these studies and 3 rats per cage were housed for 4-5 days. On the day prior to SE, rats received 127 mg/kg lithium chloride (Sigma, St. Louis, Mo., U.S.A.) intraperitoneally (i.p.). Approximately 18-20 h following this treatment, rats were given an i.p. injection of the concentration capable of inducing 97% intermittent convulsions pilocarpine(Sigma, 30-43 mg/kg). An i.p. injection of 2 mg/kg methyl-scopolamine (Sigma) was administered 30 min prior to pilocarpine to block the effects of the muscarinic agonist on peripheral cholinergic receptors. Test drugs were dissolved in 20% tween80 (Sigma).
The drugs were administered intraperitoneally (i.p.) in a volume of 2 μl/g body weight. Pharmacological effects of all of the test materials were evaluated to compare test groups (n=6) with a control group (n=6). Control group was administered vehicle only. The efficacy was measured 0.5, 1, 2, or 4 hours after the administration of the test material. The time point that the most animals were protected was defined as peak time and the ED50 was determined at peak time. The animals were then transferred to observation cages and observed continuously for 90 min Seizure was elicited in approximately 95% of the control group. […]

SMILES | ED50 [1] [mg/kg] | ED50 [2] [mg/kg] | ED50 ([3]; Rattus norvegicus, ip, prevention, read-out: Lithium pilocarpine model (pre) ED50) [mg/kg] | ED50 [4] [mg/kg] | ED50 [5] [mg/kg] | Lithium pilocarpine model (pre) efficacy % ([3]; i.p., dose 50 mg/kg) [%]
NC(=O)O[C@@H]1CCc2cccc(Cl)c2[C@@H]1O [Example 1, (1S, 2R)-8-chloro-1-hydroxy-1,2,3,4-tetrahydronaphthalen-2-yl carbamate] | 12.1 | 28.9 | 22 | 12.5 | 24.5 | –
NC(=O)O[C@@H]1c2c(Cl)cccc2CC[C@@H]1O [Example 19, (1R, 2S)-8-chloro-2-hydroxy-1,2,3,4-tetrahydronaphthalen-1-yl carbamate] | 22.4 | – | – | – | – | 50

— patent publication US11168052B2, “Carbamate derivative compounds, processes for preparing them and their uses” (BIO-PHARM SOLUTIONS CO., LTD., priority 2016, dated 2021)
